In assay [1] the target is T1, recombinant human PAI-1 (Homo sapiens, UniProt P05121). In words: Test Example 4: Human PAI-1 Inhibitory Activity (amount of PAI-1 bound to plate-coated one-chain tPA, ELISA). Details: purchased Molecular Innovations, Inc. Particulars: human PAI-1 bound to tPA, read-out: Inhibition Rate of PAI-1 Activity (%); for inhibition at 0.3 µM: Compound Concentration 0.3µM; for inhibition at 1 µM: Compound Concentration 1µM; for inhibition at 3 µM: Compound Concentration 3µM. The format is biochemical. The method, then:
100 µl of tPA solution, where one-chain recombinant tPA (hereinafter reffered to as tPA; American diagnostica, inc.) had been diluted with Buffer A to acheive a concentration of 10 µg/ml, was added to each well of a 96-well plate (Nunc Maxisorp), and the plate was incubated for one night at 4 °C to be coated with tPA. Then, after suction of tPA solution from the 96-well plate, the plate was rinsed successively with Buffer A and Buffer B. To Buffer B, solutions of the compound according to the present invention dissolved with DMSO (final DMSO concentration: 0.2 %) and recombinant human PAI-1 (Molecular Innovations, Inc.) were added. The mixtures were blended so that the final concentrations would be 0.1 to 3.0 µM and 50 ng/ml respectively, and were incubated for 15 minutes on ice. These mixed solutions were added to the rinsed 96-well plate at 100 µl/well, and incubated for 60 minutes at room temperature. To prepare a calibration curve, PAI-1 solutions without the compound according to the present invention (solutions where the final concentrations being 100, 50, 25, 12.5, 6.25, 3.13, or 1.56 ng/ml PAI-1) were added at 100 µl/well, and the plate was incubated for 60 minutes at room temperature, as standard.
After incubation, the reaction mixture was removed by suction, and each well was rinsed with Wash Buffer. Next, anti-human PAI-1 monoclonal antibody (PROGEN Inc.) diluted with Buffer C to be 3.0 µg/ml was added to the 96-well plate at 100 µl/well, and the plate was incubated for 1 hour at room temperature. After rinsing each well with Wash Buffer, alkaline phosphatase-labeled goat anti-mouse IgG (H+L) (Jackson ImmunoResearch, Inc.) diluted with Buffer D to be 0.12 µg/ml was added at 100 µl/well, and the plate was incubated for 1 hour at room temperature. After rinsing each well with Wash Buffer, 1.0 mg/ml p-Nitrophenyl Phosphate (SIGMA) was added to the 96-well plate at 100 µl/well to start the reaction. After 30 to 60 minutes, 25 µl of 0.5 N NaOH was added to stop the reaction, and the absorbance was measured at 405 nm using a multiplate reader (GENios; TECAN G.M.B.H.).
Based on the calibration curve prepared from the standard wells, amounts of PAI-1 bound to tPA in the wells that had been treated with the compound according to the present invention were calculated, and the PAI-1 inhibition rates by the compounds according to the present invention were obtained by the following equation. [API-1InhibitionRate(%)] = [1-(amountofPAI-1boundtotPaonthewellbytreatmentwiththecompondaccordingtothepresentinvention)/(amountofPAI-1boundtotPAonthewellbytreatmentwithPAI-1solutionnotincledingthecompondaccordingtotheinvention(solution having the final concentration of 50 nb/ml PAI-1)] × 100 [formula] • <Composition of Buffer A> 0.1 M Tris-HCl, 150 mM NaCl, pH 7.7 • <Composition of Buffer B> 50 mM sodium phosphate, 0.1 M NaCl, 1 mM EDTA, pH 6.6 • <Composition of Buffer C> 50 mM sodium phosphate, 100 mM NaCl, pH 7.4 • <Composition of Buffer D> 0.01 M Tris-HCl, 0.25 M NaCl, pH 8.0 • <Compositon of Wash Buffer> 0.05 % Tween 20, 0.1 % BSA in Buffer A • <Composition of p-Nitrophenyl Phosphate solution> 1 M Diethanolamine 0.5 mM MgCl2, p-Nitrophenyl phosphate, pH 9.8

The target in assay [2] is T1, recombinant human PAI-1. In words: biochemical. As to conditions: for inhibition at 5 µM: read-out: Inhibition Rate of PAI-1 Activity (%), Compound Concentration 5µM; for inhibition at 10 µM: read-out: Inhibition Rate of PAI-1 Activity (%), Compound Concentration 10µM; for inhibition at 25 µM: read-out: Inhibition Rate of PAI-1 Activity (%), Compound Concentration 25µM.

In the next assay the target is T2, recombinant rat PAI-1 (Rattus norvegicus, UniProt P20961).
T2 sequence (P20961 24-402): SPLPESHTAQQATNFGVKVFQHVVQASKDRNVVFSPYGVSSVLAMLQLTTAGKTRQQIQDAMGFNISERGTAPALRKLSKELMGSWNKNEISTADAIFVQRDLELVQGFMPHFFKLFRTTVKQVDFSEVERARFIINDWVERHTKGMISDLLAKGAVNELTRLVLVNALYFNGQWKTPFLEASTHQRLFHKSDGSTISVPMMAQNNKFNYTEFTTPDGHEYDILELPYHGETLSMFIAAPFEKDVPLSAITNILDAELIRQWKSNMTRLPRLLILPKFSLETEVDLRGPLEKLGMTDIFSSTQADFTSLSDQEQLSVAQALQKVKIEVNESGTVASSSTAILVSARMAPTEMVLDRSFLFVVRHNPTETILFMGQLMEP
As to the kind of experiment: biochemical. As to conditions: read-out: Inhibition Rate of PAI-1 Activity (%).

The target in assay [3] is T1, recombinant human PAI-1. As to the kind of experiment: Test Example 2: Human PAI-1 Inhibitory Activity (pH 7.4 HEPES buffer, 10 minutes incubation with two-chain tPA). The format is biochemical. Details: purchased Molecular Innovations, Inc. Particulars: read-out: Inhibition Rate of PAI-1 Activity (%). The method, then:
0.1 M HEPES, 0.1 M NaCl. 1 mM EDTA. 0.1 % Polyethylene glycol 8,000 (Hampton Research Corporation),
2 mM Dimethyldecylphoshine oxide [Apo-10] (Fluka Corporation)

T1 sequence (P05121 24-402): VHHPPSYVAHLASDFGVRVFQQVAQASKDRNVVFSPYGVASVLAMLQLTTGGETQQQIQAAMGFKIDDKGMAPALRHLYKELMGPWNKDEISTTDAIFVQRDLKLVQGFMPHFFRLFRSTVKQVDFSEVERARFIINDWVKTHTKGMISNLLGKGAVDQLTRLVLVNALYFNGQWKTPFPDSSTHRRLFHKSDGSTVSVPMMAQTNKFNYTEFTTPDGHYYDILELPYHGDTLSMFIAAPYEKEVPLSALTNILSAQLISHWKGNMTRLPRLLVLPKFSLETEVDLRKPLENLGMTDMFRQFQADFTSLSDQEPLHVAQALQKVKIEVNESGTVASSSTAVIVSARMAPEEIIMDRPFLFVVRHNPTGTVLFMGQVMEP

Take `CCCCOc1ccc(-c2ccc(OC(F)(F)F)cc2)cc1N(Cc1ccc(C(C)(C)C)cc1)C(=O)C(=O)O` [Compound 189]: at recombinant human PAI-1 [1], the inhibition at 0.3 µM stood at 16%, the inhibition at 1 µM worked out at 30% and the inhibition at 3 µM stood at 70%. Also, at recombinant human PAI-1 [2], the inhibition at 5 µM was 87% and the inhibition at 10 µM worked out at 95%. In addition, at recombinant rat PAI-1, the inhibition at 0.3 µM is 9%, the inhibition at 1 µM was 32%, the inhibition at 3 µM is 93% and the inhibition at 10 µM is over 99%. At recombinant human PAI-1 [3], the inhibition at 0.1 µM turned out to be 4%, the inhibition at 0.3 µM amounted to 2%, the inhibition at 1 µM was found to be 60% and the inhibition at 3 µM came out at 97%.
With `COc1cc(OC)c(N(Cc2ccc(C(C)(C)C)cc2)C(=O)C(=O)O)cc1-c1ccc(OC(F)(F)F)cc1` [Compound 190], at recombinant human PAI-1 [1], the inhibition at 0.3 µM was determined as 0%, the inhibition at 1 µM was found to be 9% and the inhibition at 3 µM is 55%. Also, on recombinant human PAI-1 [2], the inhibition at 5 µM is 65%, the inhibition at 10 µM stood at 91% and the inhibition at 25 µM was determined as 91%. Further, on recombinant rat PAI-1, the inhibition at 0.3 µM was 0%, the inhibition at 1 µM came out at 11%, the inhibition at 3 µM turned out to be 66% and the inhibition at 10 µM is over 99%. For the same molecule, on recombinant human PAI-1 [3], the inhibition at 0.1 µM came out at 2%, the inhibition at 0.3 µM was 3%, the inhibition at 1 µM came to 27% and the inhibition at 3 µM was 95%.
Regarding `CCCCCOc1ccc(-c2ccc(OC(F)(F)F)cc2)cc1N(Cc1ccc(C(C)(C)C)cc1)C(=O)C(=O)O` [Compound 194], on recombinant human PAI-1 [1], the inhibition at 0.3 µM came out at 6%, the inhibition at 1 µM stood at 22% and the inhibition at 3 µM was determined as 56%. Also, on recombinant human PAI-1 [2], the inhibition at 5 µM was 84% and the inhibition at 10 µM came out at 84%. Moreover, at recombinant rat PAI-1, the inhibition at 0.3 µM was found to be 5%, the inhibition at 1 µM worked out at 39%, the inhibition at 3 µM came to 98% and the inhibition at 10 µM was over 99%. At recombinant human PAI-1 [3], the inhibition at 0.1 µM was 0%, the inhibition at 0.3 µM came out at 7%, the inhibition at 1 µM is 63% and the inhibition at 3 µM came out at 98%.
For the molecule `CCC(CC)Oc1ccc(N(Cc2ccc(C(C)(C)C)cc2)C(=O)C(=O)O)cc1-c1ccc(OC(F)(F)F)cc1` [Compound 197], on recombinant human PAI-1 [1], the inhibition at 0.3 µM stood at 21%, the inhibition at 1 µM was found to be 34% and the inhibition at 3 µM stood at 73%. At recombinant human PAI-1 [2], the inhibition at 5 µM is 90%, the inhibition at 10 µM amounted to 92% and the inhibition at 25 µM came out at 73%. On recombinant rat PAI-1, the inhibition at 0.3 µM is 0%, the inhibition at 1 µM is 37%, the inhibition at 3 µM was 84% and the inhibition at 10 µM was found to be 75%. At recombinant human PAI-1 [3], the inhibition at 0.1 µM came to 6%, the inhibition at 0.3 µM worked out at 1%, the inhibition at 1 µM came to 38% and the inhibition at 3 µM is over 99%.
Consider `CCCOc1ccc(N(Cc2ccc(C(C)(C)C)cc2)C(=O)C(=O)O)c(-c2ccc(OC(F)(F)F)cc2)c1` [Compound 198], for which, on recombinant human PAI-1 [1], the inhibition at 0.3 µM stood at 6%, the inhibition at 1 µM worked out at 4% and the inhibition at 3 µM came to 33%. For the same molecule, on recombinant human PAI-1 [2], the inhibition at 5 µM turned out to be 79%, the inhibition at 10 µM was found to be 95% and the inhibition at 25 µM amounted to 85%. At recombinant rat PAI-1, the inhibition at 0.3 µM was determined as 4%, the inhibition at 1 µM worked out at 12%, the inhibition at 3 µM is 84% and the inhibition at 10 µM was 89%. Also, at recombinant human PAI-1 [3], the inhibition at 0.1 µM was 11%, the inhibition at 0.3 µM was determined as 8%, the inhibition at 1 µM came to 33% and the inhibition at 3 µM is over 99%.
With `CCC(CC)Oc1ccc(-c2ccc(OC(F)(F)F)cc2)cc1N(Cc1ccc(C(C)(C)C)cc1)C(=O)C(=O)O` [Compound 199], on recombinant human PAI-1 [1], the inhibition at 0.3 µM stood at 18%, the inhibition at 1 µM came out at 41% and the inhibition at 3 µM is 73%. On recombinant human PAI-1 [2], the inhibition at 5 µM was determined as 83% and the inhibition at 10 µM is 89%. Further, at recombinant rat PAI-1, the inhibition at 0.3 µM was determined as 0%, the inhibition at 1 µM was 35%, the inhibition at 3 µM stood at 97% and the inhibition at 10 µM is over 99%. Moreover, at recombinant human PAI-1 [3], the inhibition at 0.1 µM was found to be 9%, the inhibition at 0.3 µM came out at 13%, the inhibition at 1 µM was found to be 64% and the inhibition at 3 µM was over 99%.
Consider `CCCCc1ccc(CN(C(=O)C(=O)O)c2ccc(-c3ccc(C(C)(C)C)cc3)cc2)cc1` [Compound 206], for which, at recombinant human PAI-1 [1], the inhibition at 0.3 µM is 0%, the inhibition at 1 µM was 17% and the inhibition at 3 µM worked out at 40%. On recombinant human PAI-1 [2], the inhibition at 5 µM came to 78%, the inhibition at 10 µM came to 92% and the inhibition at 25 µM was 89%. For the same molecule, on recombinant rat PAI-1, the inhibition at 0.3 µM was 3%, the inhibition at 1 µM was found to be 29%, the inhibition at 3 µM was 90% and the inhibition at 10 µM was found to be 88%. At recombinant human PAI-1 [3], the inhibition at 0.1 µM turned out to be 3%, the inhibition at 0.3 µM amounted to 13%, the inhibition at 1 µM amounted to 66% and the inhibition at 3 µM is over 99%.
As to `CCN(CC)c1ccc(N(Cc2ccc(C(C)(C)C)cc2)C(=O)C(=O)O)c(-c2ccc(OC(F)(F)F)cc2)c1` [Compound 208], on recombinant human PAI-1 [1], the inhibition at 0.3 µM stood at 0%, the inhibition at 1 µM was determined as 6% and the inhibition at 3 µM is 36%. At recombinant human PAI-1 [2], the inhibition at 5 µM amounted to 89% and the inhibition at 10 µM amounted to 98%. At recombinant rat PAI-1, the inhibition at 0.3 µM turned out to be 0%, the inhibition at 1 µM stood at 12%, the inhibition at 3 µM amounted to 82% and the inhibition at 10 µM is 81%. Also, at recombinant human PAI-1 [3], the inhibition at 0.1 µM worked out at 10%, the inhibition at 0.3 µM was found to be 1%, the inhibition at 1 µM turned out to be 36% and the inhibition at 3 µM was 99%.
